In patent US11912701B2, “Protein kinase inhibitors for promoting liver regeneration or reducing or preventing hepatocyte death” (HEPAREGENIX GMBH, priority 2018, dated 2024):

How the values were obtained:
Format in all cases: biochemical
BRaf = molecular target: T1, BRaf (Homo sapiens, UniProt P15056); assay: 33PanQinase enzyme assay, BRaf; details: ratio IC50(BRaf)/IC50(MKK4)
T1 construct: purchased ProQinase GmbH, Freiburg, Germany (33PanQinase Assay Service)
T1 sequence (P15056 whole entry, species assumed): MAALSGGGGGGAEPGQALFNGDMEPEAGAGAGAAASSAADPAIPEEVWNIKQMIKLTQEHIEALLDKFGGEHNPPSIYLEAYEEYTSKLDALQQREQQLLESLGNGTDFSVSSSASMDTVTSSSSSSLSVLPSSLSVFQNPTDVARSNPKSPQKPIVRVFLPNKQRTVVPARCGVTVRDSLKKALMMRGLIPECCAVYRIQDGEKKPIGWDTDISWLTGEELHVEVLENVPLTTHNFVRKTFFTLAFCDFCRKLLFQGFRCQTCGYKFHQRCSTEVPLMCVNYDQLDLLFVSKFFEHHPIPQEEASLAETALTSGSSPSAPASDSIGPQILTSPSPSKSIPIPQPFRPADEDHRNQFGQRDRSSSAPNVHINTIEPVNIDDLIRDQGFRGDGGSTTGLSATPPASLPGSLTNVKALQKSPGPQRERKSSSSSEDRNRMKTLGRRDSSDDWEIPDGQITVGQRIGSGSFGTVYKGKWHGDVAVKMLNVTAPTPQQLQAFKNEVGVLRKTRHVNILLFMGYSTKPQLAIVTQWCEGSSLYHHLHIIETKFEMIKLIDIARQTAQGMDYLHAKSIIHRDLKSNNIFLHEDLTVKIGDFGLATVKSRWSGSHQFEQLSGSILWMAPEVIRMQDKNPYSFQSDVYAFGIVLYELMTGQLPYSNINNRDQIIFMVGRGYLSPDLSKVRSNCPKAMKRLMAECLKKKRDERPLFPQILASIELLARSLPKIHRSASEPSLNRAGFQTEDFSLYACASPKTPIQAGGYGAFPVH
Method: (§1) The kinase activities of the compounds of the invention were measured using the 33PanQinase® Assay Service provided by ProQinase GmbH, Freiburg, Germany. Details of the assay conditions are disclosed on the website of ProQinase (https://www.proginase.com/products-services-biochemical-assay-services/kinase-assays). In brief, all kinase assays were performed in 96-well FlashPlates™ from PerkinElmer (Boston, MA, USA) in a 50 μl reaction volume. The reaction cocktail was pipetted in four steps in the following order: • 20 μl of assay buffer (standard buffer) • 5 μl of ATP solution (in H2O) • 5 μl of test compound (in 10% DMSO) • 20 μl enzyme/subtrate mix
(§2) The reaction cocktails were incubated at 30° C. for 60 minutes. The reaction is stopped with 50 μl of 2% (v/v) H3PO4, plates were aspirated and washed two times with 200 μl 0.9% (w/v) NaCl. Incorporation of ^33Pi was determined with a microplate scintillation counter (Microbeta, Wallac).
(§3) All assays were performed with a BeckmanCoulter/SAGIAN™ Core System.
(§4) In case of single concentration assays, the potency of the test compound is expressed as % residual activity. […] The fitting method used was a least-squares fit.
(§5) Selectivity of test compounds against BRaf, JNK1 and MKK7, altogether denominated as off-targets was calculated by the ratio of IC50 (off-target)/IC50 (MKK4) and categorized as follows: […]

JNK1 = JNK1 (Homo sapiens, UniProt P45983); assay: 33PanQinase enzyme assay, JNK1; parameters: purchased ProQinase GmbH, Freiburg, Germany (33PanQinase Assay Service); details: ratio IC50(JNK1)/IC50(MKK4)
Chain of JNK1 (P45983 whole entry): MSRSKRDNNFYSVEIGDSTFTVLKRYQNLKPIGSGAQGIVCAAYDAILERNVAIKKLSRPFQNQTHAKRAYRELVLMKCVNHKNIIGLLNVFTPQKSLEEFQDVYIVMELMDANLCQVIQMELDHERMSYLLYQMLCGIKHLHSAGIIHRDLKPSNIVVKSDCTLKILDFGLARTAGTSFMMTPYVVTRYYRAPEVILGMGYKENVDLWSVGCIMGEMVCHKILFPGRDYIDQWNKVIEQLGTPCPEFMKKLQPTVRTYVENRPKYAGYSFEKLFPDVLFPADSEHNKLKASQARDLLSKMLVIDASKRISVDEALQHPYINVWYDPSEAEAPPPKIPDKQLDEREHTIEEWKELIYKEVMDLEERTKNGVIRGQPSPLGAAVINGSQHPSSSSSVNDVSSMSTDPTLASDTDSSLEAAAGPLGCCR
Method: as §1, §2, §3, §4, §5

MKK7 = molecular target: T2, MKK7 (Homo sapiens, UniProt O14733); assay: 33PanQinase enzyme assay, MKK7; parameters: purchased ProQinase GmbH, Freiburg, Germany (33PanQinase Assay Service); details: ratio IC50(MKK7)/IC50(MKK4)
T2 sequence (O14733 1-419): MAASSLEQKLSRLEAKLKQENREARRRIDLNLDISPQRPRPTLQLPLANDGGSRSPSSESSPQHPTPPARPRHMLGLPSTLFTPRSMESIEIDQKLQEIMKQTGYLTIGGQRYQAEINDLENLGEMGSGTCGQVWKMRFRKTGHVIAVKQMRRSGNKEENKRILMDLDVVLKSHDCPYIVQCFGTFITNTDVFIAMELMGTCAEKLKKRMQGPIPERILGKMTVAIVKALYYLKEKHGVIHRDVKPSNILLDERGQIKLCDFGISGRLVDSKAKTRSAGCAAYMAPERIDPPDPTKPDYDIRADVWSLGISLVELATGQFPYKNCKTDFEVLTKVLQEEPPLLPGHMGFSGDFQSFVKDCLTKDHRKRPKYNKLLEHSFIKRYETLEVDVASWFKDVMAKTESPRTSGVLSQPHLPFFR
Method: as §1, §2, §3, §4, §5

MKK4 = molecular target: T3, MKK4 (Homo sapiens, UniProt P45985); assay: 33PanQinase enzyme assay, MKK4; details: assay 'IC50'; read-out: Potency MKK4 (IC50)
T3 construct: purchased ProQinase GmbH, Freiburg, Germany (33PanQinase Assay Service)
T3 sequence (P45985 1-399): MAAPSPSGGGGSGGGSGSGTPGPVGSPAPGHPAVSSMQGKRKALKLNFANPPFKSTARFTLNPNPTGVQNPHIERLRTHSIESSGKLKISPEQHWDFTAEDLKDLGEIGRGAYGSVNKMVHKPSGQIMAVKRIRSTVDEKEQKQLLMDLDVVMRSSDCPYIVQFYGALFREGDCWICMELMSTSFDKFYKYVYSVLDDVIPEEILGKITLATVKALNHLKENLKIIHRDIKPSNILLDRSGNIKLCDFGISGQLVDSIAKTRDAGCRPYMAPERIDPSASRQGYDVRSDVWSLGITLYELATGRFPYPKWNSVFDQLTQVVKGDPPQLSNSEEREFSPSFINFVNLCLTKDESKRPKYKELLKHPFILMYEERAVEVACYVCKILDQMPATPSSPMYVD
Method: as §1, §2, §3, §4
Inhibition potency against MKK4 is categorized as follows:
Assay at single concentration (100 nM):

| SMILES | Selectivity Braf, IC50(off-target)/IC50(MKK4) (BRaf) | Selectivity JNK1, IC50(off-target)/IC50(MKK4) (JNK1) | Selectivity IVIKK7, IC50(off-target)/IC50(MKK4) (MKK7) | IC50 (MKK4) [µM] |
| --- | --- | --- | --- | --- |
| CCCS(=O)(=O)Nc1c(F)ccc(C(=O)c2c[nH]c3ncc(-c4ccccc4Cl)cc23)c1F [Example 213, N-(3-(5-(2-chlorophenyl)-1H-pyrrolo[2,3-b]pyridine-3-carbonyl)-2,6-difluorophenyl)propane-1-sulfonamide] | +++ (IC50(off-target)/IC50(MKK4) > 100) | ++ (100 ≥ IC50(off-target)/IC50(MKK4) > 10) | +++ (IC50(off-target)/IC50(MKK4) > 100) | < 0.1 |
| CCCS(=O)(=O)Nc1ccc(F)c(C(=O)c2c[nH]c3ncc(C(=O)NOCCO)cc23)c1F [Example 94, 3-(2,6-difluoro-3-(propylsulfonamido)benzoyl)-N-(2-hydroxyethoxy)-1H-pyrrolo[2,3-b]pyridine-5-carboxamide] | ◯ (3 ≥ IC50(off-target)/IC50(MKK4)) | + (10 ≥ IC50(off-target)/IC50(MKK4) > 3) | +++ (IC50(off-target)/IC50(MKK4) > 100) | < 0.1 |
| CCCS(=O)(=O)Nc1c(F)ccc(C(=O)c2c[nH]c3ncc(-c4cnc(N5CCNCC5)nc4)cc23)c1F [Example 185, N-(2,6-difluoro-3-(5-(2-(piperazin-1-yl)pyrimidin-5-yl)-1H-pyrrolo[2,3-b]pyridine-3-carbonyl)phenyl)propane-1-sulfonamide] | + (10 ≥ IC50(off-target)/IC50(MKK4) > 3) | ++ (100 ≥ IC50(off-target)/IC50(MKK4) > 10) | +++ (IC50(off-target)/IC50(MKK4) > 100) | 0.1 to 1 |
| CCCCS(=O)(=O)Nc1c(F)ccc(C(=O)c2c[nH]c3ncc(-c4ccc(OC)cc4Cl)cc23)c1F [Example 226, N-(3-(5-(2-chloro-4-methoxyphenyl)-1H-pyrrolo[2,3-b]pyridine-3-carbonyl)-2,6-difluorophenyl)butane-1-sulfonamide] | +++ (IC50(off-target)/IC50(MKK4) > 100) | ++ (100 ≥ IC50(off-target)/IC50(MKK4) > 10) | +++ (IC50(off-target)/IC50(MKK4) > 100) | < 0.1 |
| Cc1cnccc1-c1cnc2[nH]cc(C(=O)c3ccc(F)c(NS(=O)(=O)CCC(F)(F)F)c3F)c2c1 [Example 172, N-(2,6-difluoro-3-(5-(3-methylpyridin-4-yl)-1H-pyrrolo[2,3-b]pyridine-3-carbonyl)phenyl)-3,3,3-trifluoropropane-1-sulfonamide] | +++ (IC50(off-target)/IC50(MKK4) > 100) | +++ (IC50(off-target)/IC50(MKK4) > 100) | +++ (IC50(off-target)/IC50(MKK4) > 100) | < 0.1 |
| CCCS(=O)(=O)Nc1c(F)ccc(C(=O)c2c[nH]c3ncc(-c4cnc(C(C)(C)C)nc4)cc23)c1F [Example 196, N-(3-(5-(2-(tert-butyl)pyrimidin-5-yl)-1H-pyrrolo[2,3-b]pyridine-3-carbonyl)-2,6-difluorophenyl)propane-1-sulfonamide] | +++ (IC50(off-target)/IC50(MKK4) > 100) | +++ (IC50(off-target)/IC50(MKK4) > 100) | +++ (IC50(off-target)/IC50(MKK4) > 100) | < 0.1 |
| CCCS(=O)(=O)Nc1c(F)ccc(C(=O)c2c[nH]c3ncc(-c4ccc(OCC(O)CO)cc4Cl)cc23)c1F (stereo not shown) [Example 153, N-(3-(5-(2-chloro-4-(2,3-dihydroxypropoxy)phenyl)-1H-pyrrolo[2,3-b]pyridine-3-carbonyl)-2,6-difluorophenyl)propane-1-sulfonamide] | +++ (IC50(off-target)/IC50(MKK4) > 100) | ++ (100 ≥ IC50(off-target)/IC50(MKK4) > 10) | +++ (IC50(off-target)/IC50(MKK4) > 100) | < 0.1 |
| CCCS(=O)(=O)Nc1c(F)ccc(C(=O)c2c[nH]c3ncc(-c4cnc(C5CC5)cc4C)cc23)c1F [Example 167, N-(3-(5-(6-cyclopropyl-4-methylpyridin-3-yl)-1H-pyrrolo[2,3-b]pyridine-3-carbonyl)-2,6-difluorophenyl)propane-1-sulfonamide] | +++ (IC50(off-target)/IC50(MKK4) > 100) | +++ (IC50(off-target)/IC50(MKK4) > 100) | +++ (IC50(off-target)/IC50(MKK4) > 100) | < 0.1 |
| CCCS(=O)(=O)Nc1ccc(F)c(C(=O)c2c[nH]c3ncc(N4CCOCC4)cc23)c1F [Example 70, N-(2,4-difluoro-3-(5-morpholino-1H-pyrrolo[2,3-b]pyridine-3-carbonyl)phenyl)propane-1-sulfonamide] | ◯ (3 ≥ IC50(off-target)/IC50(MKK4)) | ++ (100 ≥ IC50(off-target)/IC50(MKK4) > 10) | +++ (IC50(off-target)/IC50(MKK4) > 100) | 0.1 to 1 |
| CCCS(=O)(=O)Nc1c(F)ccc(C(=O)c2c[nH]c3ncc(-c4cnc(C)cc4C)cc23)c1F [Example 171, N-(3-(5-(4,6-dimethylpyridin-3-yl)-1H-pyrrolo[2,3-b]pyridine-3-carbonyl)-2,6-difluorophenyl)propane-1-sulfonamide] | +++ (IC50(off-target)/IC50(MKK4) > 100) | +++ (IC50(off-target)/IC50(MKK4) > 100) | +++ (IC50(off-target)/IC50(MKK4) > 100) | < 0.1 |
| CCCS(=O)(=O)Nc1c(F)ccc(C(=O)c2c[nH]c3ncc(-c4ccc(S(N)(=O)=O)cc4)cc23)c1F [Example 220, 4-(3-(2,4-difluoro-3-(propylsulfonamido)benzoyl)-1H-pyrrolo[2,3-b]pyridin-5-yl)benzenesulfonamide] | ++ (100 ≥ IC50(off-target)/IC50(MKK4) > 10) | ++ (100 ≥ IC50(off-target)/IC50(MKK4) > 10) | +++ (IC50(off-target)/IC50(MKK4) > 100) | < 0.1 |
| CCCS(=O)(=O)Nc1ccc(F)c(C(=O)c2c[nH]c3ncc(-c4ccc(SCCN)cc4)cc23)c1F [Example 76, N-(3-(5-(4-((2-aminoethyl)thio)phenyl)-1H-pyrrolo[2,3-b]pyridine-3-carbonyl)-2,4-difluorophenyl)propane-1-sulfonamide] | ◯ (3 ≥ IC50(off-target)/IC50(MKK4)) | + (10 ≥ IC50(off-target)/IC50(MKK4) > 3) | +++ (IC50(off-target)/IC50(MKK4) > 100) | 0.1 to 1 |
| O=C(c1ccc(F)c(NS(=O)(=O)Cc2ccccc2)c1)c1c[nH]c2ncc(-c3ccc(Cl)cc3)cc12 [Example 133, N-(5-(5-(4-chlorophenyl)-1H-pyrrolo[2,3-b]pyridine-3-carbonyl)-2-fluorophenyl)-1-phenylmethanesulfonamide] | ++ (100 ≥ IC50(off-target)/IC50(MKK4) > 10) | ◯ (3 ≥ IC50(off-target)/IC50(MKK4)) | +++ (IC50(off-target)/IC50(MKK4) > 100) | 0.1 to 1 |
